The structures appear in SMILES notation.

Here are results for 2 compounds from patent US20090247519A1, “AMINO-ETHYL-AMINO-ARYL (AEAA) COMPOUNDS AND THEIR USE” (priority 2006, published 2009).

The target in assay [1] is T1, PKD1 Ser916 phosphorylation in PANC-1 cells (Homo sapiens, UniProt Q15139).
T1 construct: endogenous in cells; host or cells: PANC-1 (ATCC CRL-1469)
T1 sequence (Q15139 1-912): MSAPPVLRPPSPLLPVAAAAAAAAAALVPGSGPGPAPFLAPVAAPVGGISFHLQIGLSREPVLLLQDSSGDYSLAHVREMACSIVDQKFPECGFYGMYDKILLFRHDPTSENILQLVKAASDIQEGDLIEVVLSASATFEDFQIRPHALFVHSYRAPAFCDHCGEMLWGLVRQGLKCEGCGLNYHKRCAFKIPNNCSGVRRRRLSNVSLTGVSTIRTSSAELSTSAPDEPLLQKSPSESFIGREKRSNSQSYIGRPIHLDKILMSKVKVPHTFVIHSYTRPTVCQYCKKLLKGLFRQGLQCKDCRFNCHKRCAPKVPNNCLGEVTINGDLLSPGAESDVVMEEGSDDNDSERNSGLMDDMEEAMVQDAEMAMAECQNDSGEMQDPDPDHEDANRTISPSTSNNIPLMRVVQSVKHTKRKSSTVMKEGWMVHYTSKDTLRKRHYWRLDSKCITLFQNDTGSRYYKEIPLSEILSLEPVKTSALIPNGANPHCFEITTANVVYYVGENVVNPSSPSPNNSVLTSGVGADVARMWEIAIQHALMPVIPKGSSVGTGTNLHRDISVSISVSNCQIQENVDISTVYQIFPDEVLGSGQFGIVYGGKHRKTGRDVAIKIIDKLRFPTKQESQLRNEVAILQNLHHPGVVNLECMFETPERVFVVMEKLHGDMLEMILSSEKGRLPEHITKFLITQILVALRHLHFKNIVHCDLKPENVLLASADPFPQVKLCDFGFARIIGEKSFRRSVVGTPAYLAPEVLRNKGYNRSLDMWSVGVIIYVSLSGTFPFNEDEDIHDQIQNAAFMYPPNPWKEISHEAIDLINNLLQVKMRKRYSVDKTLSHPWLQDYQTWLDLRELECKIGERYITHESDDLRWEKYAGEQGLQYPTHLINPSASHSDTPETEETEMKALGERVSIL
The assay can be described thus: Western Blot 916 (Phospho-Ser916 PKD1) Assay in PDBu-stimulated PANC-1 cells. The note with it: 2-30 μM compound for 1 hour, then 200 nM PDBu 10 minutes, densitometry of western blot, read-out: IC50 for inhibition of PDBu-stimulated PKD1 Ser916 phosphorylation. Format: cell-based. The protocol:
Western Blot 916 (Phospho-Ser916 PKD1) Assay
PANC-1 (ATCC CRL-1469) cells were seeded in 6 well plates. After overnight serum starvation of cells, cells were washed twice in 1 mL serum-free media per well, then treatments were added in serum-free media.
Cells were treated with 2 μM, 5 μM, 10 μM, or 30 μM of an amino-ethyl-amino-aryl (AEAA) compound or with 3 μM GF1 (2-[1-(3-Dimethylaminopropyl)-1H-indol-3-yl]-3-(1H-indol-3-yl)-maleimide, a PKC inhibitor), for comparison purposes, for 1 hour. Then, 200 nM PDBu (phorbol, 12,13-dibutyrate) was added to the wells for 10 minutes. Two wells were used per treatment.
Cells were then scraped into lysis buffer (40 μL per well), samples were homogenised, and protein concentration determined. […]
FIG. 4 is a photographic depiction of the western blot analysis of cell lysates of PANC-1 cells which were treated with increasing amounts (2, 5, 10, 30 μM) of an amino-ethyl-amino-aryl (AEAA) compound (XX-032). Cell lysates were analysed using an anti-PKD1 Antibody (middle panel), anti-phospho-PKD1 (Ser916) Antibody (top panel) and anti-tubulin antibody (lower panel).
The shown columns represent the percentage phosphorylation as measured by densitometry of phospho-PKD1 (Ser916) levels. The results were normalised to the measured PKD1 levels and expressed as a percentage of the level of phosphorylation in the PDBu-stimulated control.
(In general: In western blotting, separated proteins are transferred to a membrane and probed.)

Assay [2] relates to PANC-1 cells. The assay can be described thus: MTT Assay (cell viability). Format: cell-based, human. The note with it: 5 μM, 48 hours. The method, then:
The MTT (3-[4,5-dimethylthiazol-2-yl]-2,5-diphenyltetrazolium bromide) assay can be used to assess the effect of compounds on cell viability and proliferation and to determine whether a compound is cytotoxic. In living cells, the tetrazolium salt (MTT) is reduced to a coloured formazan product (1-[4,5-dimethylthiazol-2-yl]3,5-diphenylformazan), which can be quantified. The reduction of MTT is attributed to the mitochondrial function of cells.
PANC-1 cells were seeded into 96 well plates (1×10^4 cells/well in E4+10% FCS) and placed in an incubator at 37° C., 5% CO2 overnight. Cells were serum starved (E4+0.5% FCS) for 16 hours and then treated with an amino-ethyl-amino-aryl (AEAA) compound (XX-032) in full media for 1 hour prior to treatment with Neurotensin (50 nM) for a further 23 hours or 47 hours (in E4+0.5% FCS; total exposure to test compound was 24 hours or 48 hours; 37° C. 5% CO2). At the appropriate timepoint plates were removed from the incubator and the media was aspirated off. 50 μL per well of 2 mg/mL MTT solution was added and the plates were placed back into the incubator for 2.5 to 4 hours. After incubation, the plates were removed from the incubator and the MTT solution was completely aspirated off the cells. […] The plates were read in a 96 well plate reader at 562 nm (Lab Systems, Ascent Multiscan).

Assay [3] deals with PANC-1 cells. The assay can be described thus: Apoptosis Assay (Caspase-Glo caspase 3/7 activity). The note with it: 5 μM, 48 hours. Format: cell-based, human. The method, then:
PANC-1 cells were seeded into 96 well plates (1×10^4 cells/well in E4+10% FCS) and placed in an incubator at 37° C., 5% CO2 overnight. Cells were serum starved (E4+0.5% FCS) for 16 hours and then treated with an amino-ethyl-amino-aryl (AEAA) compound in full media for 1 hour prior to treatment with Neurotensin (NT; 50 nM) for a further 23 hours or 47 hours (in E4+0.5% FCS; total exposure to test compound was 24 hours or 48 hours). Cells were then assayed for Caspase3/7 activity (Caspase-Glo; Promega) according to the manufacturer's instructions.
The Caspase-Glo assay is a homogenous luminescent assay that measures caspase 3 and 7 activities. […] When added to the cell samples, these reagents result in cell lysis, followed by caspase cleavage of the substrate and generation of a luminescent signal produced by luciferase, whereby the luminescence is proportional to the amount of caspase activity present. […]
The depicted columns show the change in viability or induction of apotosis in the presence of an amino-ethyl-amino-aryl (AEAA) compound (XX-032). Cell viability was measured by the MTT assay at two different time points (24 and 48 hours) and induction of apoptosis was measured by the caspase assay at two different time points (24 and 48 hours). The data are expressed as a percentage of the level in the corresponding control.

Assay [4] relates to PANC-1 cells. The assay can be described thus: Neurotensin Proliferation Assay (BrdU incorporation, FACS). Format: cell-based, human. The note with it: 5 μM compound, 50 nM neurotensin. The protocol: Neurotensin Proliferation Assay
BrdU incorporation into PANC-1 cells was used to measure DNA synthesis and thus the level of cell proliferation. Cells were seeded in 10 cm^2 cell culture dishes in (1×10^6 cells/well in E4+10% FCS). After serum starvation (24 hours), cells were treated with an amino-ethyl-amino-aryl (AEAA) compound for 1 hour before addition of neurotensin (50 nM final concentration). Cells were then incubated for a further 23 hours before addition of BrdU (10 μM) for the final 1 hour. Samples were fixed using 70% ethanol and labelled with an anti-BrdU antibody (Becton Dickinson Cat No. 347580, Lot No. 13467) followed by a rabbit polyclonal anti-mouse-FITC antibody (DakoCytomation Cat No. F0313, Lot No. 00015066) and propidium iodide. Samples were then analysed by Fluorescent Activated Cell Sorting (FACS). The measured fluorescence was directly proportional to the incorporated BrdU.
FIG. 6 is a graphic representation of the results of the neurotensin proliferation assay. The columns in the graph represent the mean percentage of BrdU incorporation into PANC-1 cells as a measure for cell proliferation. The two left-hand columns represent the controls of DMSO (basal level of non-stimulated cell proliferation) and DMSO plus 50 nM neurotensin (stimulated cell proliferation). […]
(Uptake of a labelled nucleoside into DNA is a usual measure of proliferation.)

The target in assay [5] is T2, Murine PKD1 kinase domain (Mus musculus, UniProt Q62101, R683W).
T2 construct: hexahistidine (His6, pFastBac HTb leader) (N); made in house; host or cells: Sf9 insect cells, baculovirus (Bac-to-Bac HT)
T2 sequence (Q62101 with tags, fused parts or gaps R683W): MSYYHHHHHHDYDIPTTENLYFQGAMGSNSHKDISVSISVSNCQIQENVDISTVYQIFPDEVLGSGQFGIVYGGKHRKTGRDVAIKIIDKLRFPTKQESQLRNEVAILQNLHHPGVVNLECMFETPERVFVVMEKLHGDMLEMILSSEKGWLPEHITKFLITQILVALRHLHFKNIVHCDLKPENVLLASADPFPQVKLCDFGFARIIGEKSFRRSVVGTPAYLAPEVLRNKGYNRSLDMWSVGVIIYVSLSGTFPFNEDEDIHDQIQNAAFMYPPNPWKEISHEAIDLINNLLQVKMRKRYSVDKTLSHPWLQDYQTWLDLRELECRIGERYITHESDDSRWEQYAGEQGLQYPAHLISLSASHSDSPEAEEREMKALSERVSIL
The experiment in a line: PKD1 (Murine Kinase Domain) Enzyme Activity Assay (IMAP fluorescence polarisation). The note with it: 10 μM ATP, 10 point dose-response. Format: biochemical. From the text: The DNA sequence corresponding to murine PKD1 (see FIG. 1) was inserted into pFastBAc Htb (Invitrogen, USA) at BamH1 and EcoR1 sites using standard molecular biology techniques.
The PKD1 described above was expressed as a hexahistidine tagged protein construct using a commercially available baculoviral expression system that induces protein production in insect cell culture (Bac-to-Bac® HT Baculovirus Expression System, Invitrogen). Protein was typically expressed by inoculating 1 L of sf9 cells with a genetically modified baculovirus containing the gene for the kinase domain of PKD1. Sf9 cells were obtained from ICR Ltd.
Purification of PKD1 was achieved by standard chromatographic procedures. Capture from crude centrifuged lysed cell supernatant was achieved using metal affinity chromatography (GE Healthcare Life Sciences, HiTrap Chelating chromatography column), and fractions showing PKD1 (as assessed by gel electrophoresis and western blot) were further purified by a single purification step. This was a performed using a mono Q anion exchange chromatography system (GE Healthcare Life Sciences, HiTrap HP Q column). […] This protocol describes the method for screening compounds as inhibitors of Protein Kinase D activity in a 384 well microplate format fluorescence polarisation IMAP assay performed using the Biomek FX. […]
(In general: In fluorescence polarisation assays a small probe gives low polarisation when free and higher when bound to something large.)

In the case of `CC[C@@H](N)CNc1nc(-c2cc(Cl)ccc2O)nc2ccccc12` [XX-032, 2-[4-((R)-2-Amino-butylamino)-quinazolin-2-yl]-4-chloro-phenol], in assay [1], the IC50 was roughly 4000 nM. In addition, the “decrease in cell viability (MTT)” value in the assay with PANC-1 cells [2] is listed as 2 fold. Also, in the assay on PANC-1 cells [3], the “increase in caspase 3/7 activity” value was 5 fold. Besides, the “Neurotensin-stimulated PANC-1 proliferation (BrdU incorporation)” value in the assay with PANC-1 cells [4] is listed as “inhibited to basal levels”.
In the case of `NCCNc1nc(-c2cc(Cl)ccc2O)nc2ccccc12` [XX-097, 2-[4-(2-Amino-ethylamino)-quinazolin-2-yl]-4-chloro-phenol], in assay [5], the IC50 turned out to be 16 nM.

What is called IC50 is the concentration that gives 50% inhibition.
